Experimental findings from USRE38984E1, “Antifungal combination therapy” (Merck & Co., Inc., priority 1996, dated 2006) are described below.

The test system of data set [1] is A. fumigatus. Put plainly: broth microdilution antifungal susceptibility / drug combination testing in vitro (NCCLS M27-T). The class given is cell-based. An excerpt:
(§1) This has been shown using a broth microdilution technique which is the standard method for antifungal susceptibility testing proposed by the NCCLS (protocol M27-T). Sub-inhibitory concentrations of Compound I in combination with sub-inhibitory concentrations of AmB and sub-inhibitory concentrations of FCZ were employed. The minimal inhibitory concentrations (MICS) for AmB and Compound I were defined as the lowest drug concentration at which there was an absence of growth.
(§2) Additional drug combination testing in vitro was performed to evaluate combinations of Compound I with AmB and FCZ against clinical isolates. There was no antagonism evident between Compound I and AmB against C. albicans, A. fumigatus and C. neoformans. Fractional inhibitory indices (FIC) were approximately 0.50 or lower, indicative of additive or synergistic activity.

For data set [2], the system named is C. albicans. The data set is described as above. It is filed as cell-based.
Source text: as §1, §2

For data set [3], the system named is C. neoformans. Described as above. The class given is cell-based.
Source text: as §1, §2

For data set [4], the system named is C. albicans. Put plainly: drug interaction and efficacy study against disseminated candidiasis. It is filed as in vivo. Conditions: Compound I 0.03 mg/kg and lower plus AmB 0.03 mg/kg and lower. As to the method: (§3) Drug interaction and efficacy studies with Compound I combined with either AmB or FCZ against disseminated candidiasis, aspergillosis and cryptococcosis were performed.

The test system of data set [5] is A. fumigatus. Put plainly: drug interaction and efficacy study against disseminated aspergillosis. The class given is in vivo. Conditions: Compound I 0.008 mg/kg combined with AmB 0.12 mg/kg, over the compounds administered alone. As to the method:
as §3

Data set [6] relates to C. neoformans. Put plainly: drug interaction and efficacy study against cryptococcosis in mice. The class given is in vivo. As to the method: as §3
Data set [7] is described as follows: drug interaction and efficacy studies against disseminated candidiasis, aspergillosis and cryptococcosis (overall findings). The class given is in vivo. As for the experimental part: as §3
Setting [8] is: Compound I with AmB, sub-inhibitory concentrations.
[9] abbreviates: in vitro drug combination, clinical isolates, indicative of additive or synergistic activity.

In the case of `CCC(C)CC(C)CCCCCCCCC(=O)N[C@H]1C[C@@H](O)[C@@H](NCCN)NC(=O)[C@@H]2[C@@H](O)CCN2C(=O)[C@H]([C@H](O)CCN)NC(=O)[C@H]([C@H](O)[C@@H](O)c2ccc(O)cc2)NC(=O)[C@@H]2C[C@@H](O)CN2C(=O)[C@H]([C@@H](C)O)NC1=O` (stereo partly drawn) [Compound I], the “activity of combination therapy in vitro” value in data set [1] (setting [8]) is given as “enhanced activity”; in data set [2] (setting [8]), “enhanced activity”; in data set [3] (Compound I with AmB and FCZ, sub-inhibitory concentrations, strains of C. neoformans) it was “enhanced activity”. In addition, the “Fractional inhibitory indices (FIC)” value in data set [1] (setting [9]), in data set [2] (setting [9]) and in data set [3] (setting [9]) was no more than 0.50 throughout. Besides, the “antagonism between Compound I and AmB” value in data set [1] (in vitro, clinical isolates) was “no antagonism”; in data set [2] (in vitro, clinical isolates), “no antagonism”; in data set [3] (in vitro, clinical isolates), “no antagonism”. Moreover, in data set [3] (Compound I combined with fluconazole 0.25, 0.50 and 1.0 μg/ml), the “effect on activity of fluconazole (CFU numbers)” value was “significantly enhanced the activity of fluconazole”. Moreover, in data set [3] (amphotericin B 0.0075, 0.015 and 0.03 μg/ml combined with Compound I 4, 8 and 16 μg/ml), the “colony forming units (CFUs)” value was “markedly reduced”. The “efficacy of combination versus single agents” value in data set [4] is on record as “more efficacious than either agent administered alone”. Besides, in data set [5], the survival result is “Significant improvement in survival”. Moreover, the antagonism of efficacy entry in data set [6] (FCZ in combination with Compound I, cryptococcosis in mice) is given as “no antagonism of efficacy”; in data set [7] (either AmB or FCZ combined with Compound I), “no antagonism of efficacy”. In data set [6] (combinations of Compound I and FCZ at certain concentrations), the effects on efficacy result was “Beneficial effects on efficacy”. The “FIC values in vivo” value in data set [7] (Compound I and AmB, suggesting additive or synergistic activity in vivo) is recorded as “approximately 0.50”. Besides, in data set [7] (Compound I combined with either AmB or FCZ, at high, use or lower concentrations), the “adverse effects with combinations” value is reported as “no adverse effects”.
